Data: patent US6150363A, “Dihydrophenazinecarboxylic acid derivatives” (priority 1996, dated 2000)
Counter-ions that a name gives are not always drawn. Values belong to the molecule of their own block, whether it stands above or below them.

Tests used:
free radical = settings: cited from earlier work; for free radical scavenger (anti-oxidant): J. Nat. Prod., 56, 1255(1993); for antioxidant property: J. Antibiotics, 48, 1378 (1995) and PCT WO96/22996
hippocampal cells = assay: Test for inhibition of glutamic acid toxicity to hippocampal cells in primary culture (LDH); type: cell-based; settings: hippocampal cell, rat fetus, 1 mM glutamic acid, 48 hours
Text: 1) Preparation of hippocampal cells (from rat fetus in primary culture) A pregnant rat (18 days pregnancy) was anesthetized by Pentobarbital sodium. Its abdomen was sterilized using 83% ethanol and treated to take its fetus out. The whole brain was taken out from the fetus under stereomicroscopical observation. From the brain, its hippocampal portion was taken out. The hippocampal portion was cut into small pieces using a knife. The procedures for taking the hippocampal portion out and cutting the portion into small pieces were performed in a Hanks buffer solution (4° C.) without Ca^2+ and Mg^2+. The pieces of hippocampus were treated with 0.25% trypsin/0.01% DNase I solution at 37° C. for 30 minutes. After the addition of dialyzed FBS at the concentration of 20%, the treated specimen was recovered by centrifugal separation and suspended in DMEM containing GMS-A obtained from GIBCO (S1 culture medium). The specimen was gently treated by a pipet to give a cell suspension. […] 2) Determination of activity (Lactate dehydrogenase (LDH) method) The cytoprotective action of the test compound was determined by measuring activity of LDH released from the dead cells and activity of LDH in the living cells. […] After the culturing procedure was complete, the activity of lactate dehydrogenase was determined in the manner described in 1) above.

glutamic acid toxicity = settings: J. Antibiotics, 48, 1378 (1995) and PCT WO96/22996; cited from earlier work
N18-RE-105 cell [1] = assay: Test for inhibition of glutamic acid toxicity to neurocyte (LDH release); type: cell-based, hybridoma of mouse neuroblastoma and rat retinal neurocyte; settings: for EC50: 10 mM glutamic acid, 24 hours; for cytoprotective action to glutamic acid toxicity in neurocyte: result in words
Description: Neuron 2, 1547 (1989) and J. Pharmacol. Exp. […] The dihydrophenazinecarboxylic acid derivatives of the invention were examined in the action to the glutamic acid-induced cell death. […] Hybridoma cells were plated at 6.25×10^3 cells/cm^2. on 96 well microplate in Dalbecco's modified MEM containing 10% FBS (fetal bovine serum) and HAT (hypoxanthine 0.1 mM, aminopterin 40 nM, thymidine 0.14 mM, Sigma Chem., Co.). […] After the addition of glutamic acid, the culture was maintained for further 24 hours. Then, the activity of lactate dehydrogenase (LDH) contained in the cells and the medium was determined. The LDH releasing ratio was calculated using the below-mentioned equation to examine the glutamic acid toxicity. LDH releasing ratio=[LDH activity in medium/(LDH activity in cells and LDH activity in medium)]×100

N18-RE-105 cell [2] = assay: Test for inhibition of BSO toxicity to neurocyte (LDH release); type: cell-based, hybridoma of mouse neuroblastoma and rat retinal neurocyte; settings: for EC50: BSO 500 μM, 24 hours; for cytoprotective action to BSO toxicity in neurocyte: result in words
Description: (2) Test for inhibition of BSO toxicity to neurocyte (neurocyte protective action against cytotoxicity accompanied by decrease of amount of intracellular glutathione)
The culture of neurocyte N18-RE-105, addition of the test compound, and determination of lactate dehydrogenase (LDH) were carried out in the manner as described in (1) above. BSO was added at the concentration of 500 μM.

ddY strain male mice = assay: Acute toxicity, intravenous, mice; type: in vivo; settings: 5 mg, intravenous injection
Description: The compound of the invention (ethyl 7-benzoyl-5,10-dihydro-1-phenazinecarboxylate obtained in Example 1) was administered to ddY strain male mice (weight: 23 to 27 g) in a dose of 5 mg by intravenous injection.

[3] = Stability at room temperature under atmospheric conditions; type: physicochemical
[4] = tested on: rat whole brain homogenate; assay: Test for inhibition of production of peroxidized lipid in rat whole brain homogenate (TBA method); type: biochemical; settings: 10^-4 M, iron-ascorbic acid, 37° C., one hour
Text: (4) Test for inhibition of production of peroxidized lipid in rat whole brain homogenate
From the rat which had been fed with vitamin E deficient food for 11 weeks, a whole brain was taken out and frozen in liquid nitrogen. After the frozen whole brain was pulverized to give a powder, it was homogenized by Dounce type homogenizer. The homogenate was subjected to centrifugal separation at 180×g for 10 minuets, and the supernatant was recovered. The recovered supernatant was employed as the whole brain homogenate. The reaction of lipid peroxidation was initiated by stimulation using iron-ascorbic acid. The peroxidized lipid was quantitatively analyzed by the thiobarbituric acid (TBA) method. In more detail, 200 μL of the whole brain homogenate (protein content: 12.5 mg/mL), 50 μL of ADP (2 mg/mL), 50 μL of FeSO4 (0.5 mM), 50 μL of ascorbic acid (12 mM), and 50 μL of the test compound were added to 100 μL of 0.2M Tris-HCl buffer solution. The mixture was incubated at 37° C. for one hour. After the incubation was complete, 50 μL of 0.5% butylhydroxytoluene/ethanol solution, 250 μL of 8.1% SDS (sodium dodecylsulfate) solution, 1,750 μL of 20% acetic acid, and 1,500 μL of 0.8% TBA solution were added to the incubated mixture. The resulting mixture was boiled for one hour. […] The separated supernatant was subjected to measurement of absorbance at 535 nm.

SMILES: COC(=O)c1cc(C(=O)c2ccccc2)cc2c1Nc1ccc(C(=O)c3ccccc3)cc1N2C/C=C(\C)CCC=C(C)C [its methyl ester]
free radical scavenger (anti-oxidant) (free radical): employable as a free radical scavenger (anti-oxidant)

SMILES: CC(C)=CCN1c2cc(C(=O)c3ccccc3)ccc2Nc2c(C(=O)OCCCN(C)C)cccc21 [Compound 5, 3-(Dimethylamino)propyl 7-benzoyl-5,10-dihydro-5-(3-methyl-2-butenyl)-1-phenazinecarboxylate hydrochloride]
EC25 (hippocampal cells): 57.5 nM

SMILES: CC(C)=CCc1cc(C(=O)c2ccccc2)cc2c1Nc1c(C(=O)OC3O[C@@H](C)[C@H](O)[C@@H](O)[C@H]3O)cccc1N2CC=C(C)C (stereo partly shown) [aestivophoenin B]
inhibition of glutamic acid toxicity (glutamic acid toxicity): inhibit glutamic acid toxicity | antioxidant property (free radical): shows antioxidant property

SMILES: CCOC(=O)c1cccc2c1Nc1ccc(C(=O)c3ccccc3)cc1N2C(=O)OC [Comparative, Ethyl 7-benzoyl-5,10-dihydro-5-methoxycarbonyl-1-phenazinecarboxylate]
EC50 (N18-RE-105 cell [1]): > 1000 nM | cytoprotective action to glutamic acid toxicity in neurocyte (N18-RE-105 cell [1]): no cytoprotective action | EC50 (N18-RE-105 cell [2]): > 1000 nM | cytoprotective action to BSO toxicity in neurocyte (N18-RE-105 cell [2]): no cytoprotective action

SMILES: O=c1c2ccccc2[se]n1-c1ccccc1 [Ebselen, ebselen]
EC50 (N18-RE-105 cell [1]): 10100 nM | cytoprotective action to glutamic acid toxicity in neurocyte (N18-RE-105 cell [1]): no cytoprotective action | EC50 (N18-RE-105 cell [2]): 7500 nM | cytoprotective action to BSO toxicity in neurocyte (N18-RE-105 cell [2]): no cytoprotective action

SMILES: CCOC(=O)c1cccc2c1Nc1ccc(C(=O)c3ccccc3)cc1N2 [Compound 1, Ethyl 7-benzoyl-5,10-dihydro-1-phenazinecarboxylate]
EC50 (N18-RE-105 cell [1]): 3.3 nM | death (acute toxicity) (ddY strain male mice): No death was observed | EC50 (N18-RE-105 cell [2]): 6 nM

stability [3]: unstable at room temperature
SMILES: CCOC(=O)c1cccc2c1Nc1ccccc1N2 [ethyl 5,10-dihydro-1-phenazinecarboxylate]

SMILES: CCOC(=O)c1cccc2c1Nc1ccc(C(=O)c3ccccc3)cc1N2C [Compound 4, Ethyl 7-benzoyl-5,10-dihydro-5-methyl-1-phenazinecarboxylate]
EC50 (N18-RE-105 cell [1]): 58 nM | EC50 (N18-RE-105 cell [2]): 90 nM

SMILES: CC(C)=CCC/C(C)=C/CN1c2cc(C(=O)c3ccccc3)ccc2Nc2c(C(=O)O)cc(C(=O)c3ccccc3)cc21 [benthophoenin]
free radical scavenger (anti-oxidant) (free radical): employable as a free radical scavenger (anti-oxidant)

SMILES: CCOC(=O)c1cccc2c1Nc1ccc(C(=O)c3ccccc3)cc1N2CC=C(C)C [Compound 2, Ethyl 7-benzoyl-5,10-dihydro-5-(3-methyl-2-butenyl)-1-phenazinecarboxylate]
EC50 (N18-RE-105 cell [1]): 14.5 nM | EC25 (hippocampal cells): 12 nM | Inhibition of lipid peroxidation (% per control value) [4]: 60.2% | EC50 (N18-RE-105 cell [2]): 96.2 nM

SMILES: CCOC(=O)c1cccc2c1Nc1ccc(C(=O)c3ccccc3)cc1N2Cc1ccccc1 [Compound 3, Ethyl 7-benzoyl-5-benzyl-5,10-dihydro-1-phenazinecarboxylate]
EC50 (N18-RE-105 cell [1]): 40.7 nM | EC50 (N18-RE-105 cell [2]): 72 nM

SMILES: CC(CNC(=O)c1cccnc1)NC(=O)c1cccnc1 (stereo not shown) [Nicarven, nicaraven]
EC50 (N18-RE-105 cell [1]): > 100000 nM | cytoprotective action to glutamic acid toxicity in neurocyte (N18-RE-105 cell [1]): no cytoprotective action | EC50 (N18-RE-105 cell [2]): > 100000 nM | cytoprotective action to BSO toxicity in neurocyte (N18-RE-105 cell [2]): no cytoprotective action

SMILES: CC(C)=CCN1c2cc(C(=O)c3ccccc3)ccc2Nc2c(C(=O)OC3O[C@@H](C)[C@H](O)[C@@H](O)[C@H]3O)cccc21 (stereo partly shown) [aestivophoenin A]
inhibition of glutamic acid toxicity (glutamic acid toxicity): inhibit glutamic acid toxicity | antioxidant property (free radical): shows antioxidant property
